{
  "source": "patent US20250066502A1",
  "about": "“MEDICAMENT FOR TREATMENT AND/OR PREVENTION OF CANCER” (TORAY INDUSTRIES, INC., priority 2021, published 2025)",
  "assay_type_in_all_cases": "cell-based",
  "key": {"[1]": {"tested_on": "human uterus cancer cell line MFE-296", "assay": "THP-1-mediated antibody-dependent phagocytic activity against MFE-296", "conditions": "romidepsin combination test group (20 nM, 2 days) with anti-CAPRIN-1 antibody, THP-1 coculture 1 hour", "description": "(§1) Specifically, in each combination test group (a romidepsin combination test group and a panobinostat combination test group), the indicated drug used in combination was applied to human cancer cells, and then the cancer cells were cocultured with human monocytic cells (THP-1) in the presence of the anti-CAPRIN-1 antibody, and the antibody-mediated phagocytic activity against the cancer cells by THP-1 was evaluated. […] As a control, a test group without a drug used in combination was established. […] Further, dead cells were stained with propidium iodide (PI) (final concentration: 0.1 μg/mL), followed by the measurement of fluorescence from the cells by flow cytometry. PI-positive dead cells were excluded from analysis. The human monocytic cells THP-1 recognize an antibody bound onto cancer cells and phagocytize the cancer cells. At that time, if the cancer cells have been stained with calcein-AM, the monocytic cells ingesting the cancer cells by phagocytosis also become positive to calcein-AM. Thus, the phagocytic activity in this evaluation system was calculated as the ratio (%) of APC-positive/calcein-AM-positive cells to the whole calcein-AM-positive population."}, "[2]": {"tested_on": "human bile duct cancer cell line KKU-100", "assay": "THP-1-mediated antibody-dependent phagocytic activity against KKU-100", "conditions": "romidepsin combination test group (2 nM, 2 days) with anti-CAPRIN-1 antibody, THP-1 coculture 1 hour", "description": "as §1"}, "[3]": {"tested_on": "human prostate cancer cell line DU145", "assay": "THP-1-mediated antibody-dependent phagocytic activity against DU145", "conditions": "THP-1 coculture 2.5 hours", "description": "(§2) Specifically, in each combination test group (a romidepsin combination test group, a panobinostat combination test group, and a cisplatin combination test group), the indicated drug used in combination was applied to human cancer cells, and then the cancer cells were cocultured with human monocytic cells (THP-1) in the presence of the anti-CAPRIN-1 antibody, and the antibody-mediated phagocytic activity against the cancer cells by THP-1 was evaluated. […] The concentration of the drug used in combination was set to a concentration that decreased the proliferation rate of the cancer cells by about half at the completion of culture. As a control, a test group without a drug used in combination was established. […] Further, dead cells were stained with propidium iodide (PI) (final concentration: 0.1 μg/mL), followed by the measurement of fluorescence from the cells by flow cytometry. PI-positive dead cells were excluded from analysis. The human monocytic cells THP-1 recognize an antibody bound onto cancer cells and phagocytize the cancer cells. At that time, if the cancer cells have been stained with calcein-AM, the monocytic cells ingesting the cancer cells by phagocytosis also become positive to calcein-AM. Thus, the phagocytic activity in this evaluation system was calculated as the ratio (%) of APC-positive/calcein-AM-positive cells to the whole calcein-AM-positive population."}, "[4]": {"tested_on": "human lung cancer cell line A549", "assay": "THP-1-mediated antibody-dependent phagocytic activity against A549", "conditions": "THP-1 coculture 2.5 hours", "description": "as §2"}, "[5]": {"tested_on": "human colon cancer cell line HCT116", "assay": "THP-1-mediated antibody-dependent phagocytic activity against HCT116", "conditions": "panobinostat combination test group (10 nM, 2 days) with anti-CAPRIN-1 antibody, THP-1 coculture 2.5 hours", "description": "as §2"}, "[6]": {"tested_on": "human ovarian cancer cell line TOV-21G", "assay": "THP-1-mediated antibody-dependent phagocytic activity against TOV-21G", "conditions": "panobinostat combination test group (30 nM, 2 days) with anti-CAPRIN-1 antibody, THP-1 coculture 1 hour", "description": "as §1"}, "[7]": {"tested_on": "human breast cancer cell line MDA-MB-231", "assay": "THP-1-mediated antibody-dependent phagocytic activity against MDA-MB-231", "conditions": "panobinostat combination test group (30 nM, 2 days) with anti-CAPRIN-1 antibody, THP-1 coculture 1 hour", "description": "as §1"}, "[8]": {"conditions": "romidepsin combination test group (1 nM, 2 days) with anti-CAPRIN-1 antibody"}, "[9]": {"conditions": "panobinostat combination test group (10 nM, 2 days) with anti-CAPRIN-1 antibody"}},
  "data": [
    {"smiles": "C/C=C1\\NC(=O)[C@H]2CSSCC/C=C/[C@H](CC(=O)N[C@H](C(C)C)C(=O)N2)OC(=O)[C@H](C(C)C)NC1=O", "note": "[romidepsin, (1S,4S,10S,16E,21R)-7-[(2Z)-ethylidene]-4,21-bis(1-methylethyl)-2-oxa-12,13-dithia-5,8,20,23-tetraazabicyclo[8.7.6]tricos-16-ene-3,6,9,19,22-pentone]", "values": [
      {"measurement": "phagocytic activity against cancer cells", "setting": "[1]", "result": "≥ 27", "unit": "%"},
      {"measurement": "phagocytic activity against cancer cells", "setting": "[2]", "result": "≥ 14", "unit": "%"},
      {"measurement": "phagocytic activity against cancer cells", "setting": "[3]; [8]", "result": 8, "unit": "%"},
      {"measurement": "phagocytic activity against cancer cells", "setting": "[4]; [8]", "result": 29, "unit": "%"}
    ]},
    {"smiles": "Cc1[nH]c2ccccc2c1CCNCc1ccc(/C=C/C(=O)NO)cc1", "note": "[panobinostat, (2E)-N-Hydroxy-3-[4-({[2-(2-methyl-TH-indol-3-yl)ethyl]amino}methyl)phenyl]prop-2-enamide]", "values": [
      {"measurement": "phagocytic activity against cancer cells", "setting": "[5]", "result": 32, "unit": "%"},
      {"measurement": "phagocytic activity against cancer cells", "setting": "[6]", "result": 81, "unit": "%"},
      {"measurement": "phagocytic activity against cancer cells", "setting": "[7]", "result": 41, "unit": "%"},
      {"measurement": "phagocytic activity against cancer cells", "setting": "[3]; [9]", "result": 8, "unit": "%"},
      {"measurement": "phagocytic activity against cancer cells", "setting": "[4]; [9]", "result": 15, "unit": "%"}
    ]},
    {"smiles": "N.N.[Cl][Pt][Cl]", "note": "[cisplatin]", "values": [
      {"measurement": "phagocytic activity against cancer cells", "setting": "[4]; cisplatin combination test group (20 μM, 2 days) with anti-CAPRIN-1 antibody", "result": 13, "unit": "%"}
    ]}
  ]
}
